Patent EP4603105A1, “PHARMACEUTICAL COMPOSITION CONTAINING CYCLIC COMPOUND HAVING SELECTIVE KRAS INHIBITORY EFFECT AGAINST HRAS AND NRAS” (CHUGAI SEIYAKU KABUSHIKI KAISHA, priority 2022, dated 2024)
Where a SMILES comes first, the peptide text is derived from it. Bridges are numbered along the chain shown (N, C = ends). [ ]: non-standard residue; d: D form. The star is where a group is joined. hPhe(3-Cl-4-CF3) = N[C@@H](CCc1ccc(C(F)(F)F)c(Cl)c1)C(=O)O; NPrPhe(4-CF3) = CCCN[C@@H](Cc1ccc(C(F)(F)F)cc1)C(=O)O; NMeGly(cPent) = CN[C@H](C(=O)O)C1CCCC1; Pro(4,4-F2) = O=C(O)[C@@H]1CC(F)(F)CN1; NMeD = CN[C@@H](CC(=O)O)C(=O)O; NMeL = CN[C@@H](CC(C)C)C(=O)O; NMeNva = CCC[C@H](NC)C(=O)O; hPip = O=C(O)[C@@H]1CCCCCN1; Morpholide = C1CN(*)CCO1; NMeA = CN[C@@H](C)C(=O)O; Ac5c = NC1(C(=O)O)CCCC1; Aze = O=C(O)[C@@H]1CCN1; Ac4c = NC1(C(=O)O)CCC1; NEtG = CCNCC(=O)O; Sar = CNCC(=O)O

How the values were obtained:
[1] = system: human lung cancer strain NCI-H441; assay type: cell-based
How it was run: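 Proliferation was scored by […] measured after the reagent was added to cultures kept at 37°C in 5% carbon dioxide.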

HRAS wild-type protein = HRAS wild-type protein (Homo sapiens, UniProt P01112); assay: Binding to HRAS by surface plasmon resonance (SPR), KD and KD ratio to KRAS
Sequence of HRAS wild-type protein (P01112 whole entry): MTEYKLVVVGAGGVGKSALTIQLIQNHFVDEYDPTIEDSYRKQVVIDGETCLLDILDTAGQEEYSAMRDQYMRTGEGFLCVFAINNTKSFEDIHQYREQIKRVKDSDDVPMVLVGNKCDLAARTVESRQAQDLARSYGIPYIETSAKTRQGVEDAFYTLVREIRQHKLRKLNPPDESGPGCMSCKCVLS
How it was run: (§1)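 Single-cycle kinetics on GDP-loaded biotin-Avi RAS captured to ~100–300 RU; 75 s ascending injections, 100 µL/min, 30°C. HBS pH 7.4 + 10 mM MgCl2/10 µM GDP/4% DMSO. 1:1 fit, KD.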

[2] = target: GDP-bound NRAS wild-type protein (Homo sapiens, UniProt P01111); assay: Binding to NRAS by surface plasmon resonance (SPR), KD and KD ratio to KRAS
Sequence of GDP-bound NRAS wild-type protein (P01111 whole entry): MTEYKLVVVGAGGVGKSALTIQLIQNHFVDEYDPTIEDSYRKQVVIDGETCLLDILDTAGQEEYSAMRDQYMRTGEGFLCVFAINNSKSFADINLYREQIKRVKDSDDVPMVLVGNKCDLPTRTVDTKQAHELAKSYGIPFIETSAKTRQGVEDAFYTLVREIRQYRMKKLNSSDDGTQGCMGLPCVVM
How it was run: as §1

[3] = ratio of KD for HRAS wild-type protein to KD for KRAS
[4] = ratio of KD for GDP-bound NRAS wild-type protein to KD for KRAS
[5] = ratio of the KD value with respect to HRAS wild-type protein to the KD value with respect to KRAS
[6] = ratio of the KD value with respect to GDP-bound NRAS wild-type protein to the KD value with respect to KRAS
[7] = ratio of KD value for HRAS wild-type protein to KD value for KRAS (SPR)
[8] = ratio of KD value for GDP-bound NRAS wild-type protein to KD value for KRAS (SPR)

Compound | IC50 [1] [nM] | HRAS /KRAS (HRAS wild-type protein; [3]) | NRAS /KRAS [2, 4] | HRAS /KRAS (HRAS wild-type protein; [5]) | NRAS /KRAS [2, 6] | HRAS /KRAS (HRAS wild-type protein; [7]) | NRAS /KRAS [2, 8]
CCC[C@H]1C(=O)N[C@@H]([C@@H](C)CC)C(=O)N(C)CC(=O)N(C)CC(=O)N(CCC)[C@@H](Cc2ccc(C(F)(F)F)cc2)C(=O)N(C)CC(=O)N[C@@H](CCc2ccc(C(F)(F)F)c(Cl)c2)C(=O)N2CC(F)(F)C[C@H]2C(=O)NC2(CCCC2)C(=O)N(C)[C@@H](C2CCCC2)C(=O)N(C)[C@H](C(=O)N2CCOCC2)CC(=O)N1C [PP0201] ([NMeNva]I[Sar][Sar][NPrPhe(4-CF3)][Sar][hPhe(3-Cl-4-CF3)][Pro(4,4-F2)][Ac5c][NMeGly(cPent)][NMeD]-Morpholide; lactam N-11) | 3.4 | C (A compound having a KD ratio of 0.1 or more and less than 3 is denoted as C) | B (a compound having 3 or more and less than 10 is denoted as B) |  |  |  | 
CCO[C@@H]1C[C@H]2C(=O)NC3(CC(C)(C)C3)C(=O)N(C)[C@@H](C(CC)CC)C(=O)N(C)[C@H](C(=O)N(C)C)CC(=O)N(C)[C@@H](C)C(=O)N[C@@H]([C@@H](C)CC)C(=O)N(C)CC(=O)N(C)[C@H]3C/C=C\CCN(C3=O)[C@@H](Cc3ccc(C)cc3)C(=O)N(C)CC(=O)N[C@@H](CCc3cc(F)c(C(F)(F)F)c(F)c3)C(=O)N2C1 [PP2143] | 6.6 |  |  | A (a compound having 10 or more and less than 20 is denoted as A) | A (a compound having 10 or more and less than 20 is denoted as A) |  | 
CCCN1C(=O)CN(C)C(=O)CN(CC)C(=O)[C@H]([C@@H](C)CC)NC(=O)[C@@H]2CCCCCN2C(=O)C[C@@H](C(=O)N2CCOCC2)N(C)C(=O)[C@H](C2CCCC2)N(C)C(=O)C2(CCCC2)NC(=O)[C@@H]2CCCN2C(=O)[C@H](CCc2ccc(C(F)(F)F)c(Cl)c2)NC(=O)CN(C)C(=O)[C@@H]1Cc1ccc(C(F)(F)F)cc1 [PP0289] ([hPip]I[NEtG][Sar][NPrPhe(4-CF3)][Sar][hPhe(3-Cl-4-CF3)]P[Ac5c][NMeGly(cPent)][NMeD]-Morpholide; lactam N-11) | 76.4 | B (a compound having 3 or more and less than 10 is denoted as B) | B (a compound having 3 or more and less than 10 is denoted as B) |  |  |  | 
CCCN1C(=O)[C@@H]2CCN2C(=O)[C@H](C)N(C)C(=O)[C@H]([C@@H](C)CC)NC(=O)[C@H](CC(C)C)N(C)C(=O)C[C@@H](C(=O)N(C)C)N(C)C(=O)[C@H](C2CCCC2)N(C)C(=O)C2(CCC2)NC(=O)[C@@H]2CCCN2C(=O)[C@H](CCc2ccc(C(F)(F)F)c(Cl)c2)NC(=O)CN(C)C(=O)[C@@H]1Cc1ccc(C(F)(F)F)cc1 [PP0435] ([NMeL]I[NMeA][Aze][NPrPhe(4-CF3)][Sar][hPhe(3-Cl-4-CF3)]P[Ac4c][NMeGly(cPent)][NMeD]-NMe2; lactam N-11) | 2.6 |  |  | C (A compound having a KD ratio of 0.1 or more and less than 3 is denoted as C) | C (A compound having a KD ratio of 0.1 or more and less than 3 is denoted as C) |  | 
CC[C@H](C)[C@@H]1NC(=O)[C@H](CC)N(C)C(=O)C[C@@H](C(=O)N(C)C)N(C)C(=O)[C@H](C2CCCC2)N(C)C(=O)C2(CCCC2)N(C)C(=O)[C@@H]2CCCN2C(=O)[C@H](CCc2cc(F)c(C(F)(F)F)c(F)c2)NC(=O)CN(C)C(=O)[C@H](Cc2ccc(C(F)(F)F)cc2)N2CC/C=C\C[C@@H](C2=O)N(C)C(=O)CN(C)C1=O [PP1805] | 7 |  |  |  |  | A (a compound having 10 or more and less than 20 is denoted as A) | A (a compound having 10 or more and less than 20 is denoted as A)
CC[C@H](C)[C@@H]1NC(=O)[C@H](CC2CCCC2)N(C)C(=O)C[C@@H](C(=O)N(C)C)N(C)C(=O)[C@H](C2CCCC2)N(C)C(=O)C2(CCC2)NC(=O)[C@@H]2C[C@@H](C(F)(F)F)CN2C(=O)[C@H](CCc2cc(F)c(C(F)(F)F)c(F)c2)NC(=O)CN(C)C(=O)[C@H](Cc2ccc(C(F)(F)F)cc2)N2CC/C=C\C[C@@H](C2=O)N(C)C(=O)CN(C)C1=O [PP1505] | 4 |  |  |  |  | A (a compound having 10 or more and less than 20 is denoted as A) | A (a compound having 10 or more and less than 20 is denoted as A)
CCC[C@H]1C(=O)N[C@@H](C2CCCC2)C(=O)N(C)CC(=O)N(C)[C@H]2C/C=C\CCN(C2=O)[C@@H](Cc2ccc(C)cc2)C(=O)N(C)CC(=O)N[C@@H](CCc2cc(F)c(C(F)(F)F)c(F)c2)C(=O)N2CC3(CC3)C[C@H]2C(=O)NC2(CC(C)(C)C2)C(=O)N(C)[C@@H](CC(C)(C)C)C(=O)N(C)[C@H](C(=O)N(C)C)CC(=O)N1C [PP2999] | 11.4 | A (a compound having 10 or more and less than 20 is denoted as A) | AA (a compound having 20 or more is denoted as AA) |  |  |  | 

Continued by falling IC50 [1], values first:

IC50 [1] [nM] | Compound | HRAS /KRAS (HRAS wild-type protein; [3]) | NRAS /KRAS [2, 4] | HRAS /KRAS (HRAS wild-type protein; [5]) | NRAS /KRAS [2, 6] | HRAS /KRAS (HRAS wild-type protein; [7]) | NRAS /KRAS [2, 8]
150 | CCO[C@@H]1C[C@H]2C(=O)NC3(CCC3)C(=O)N(C)[C@@H](C3CCCC3)C(=O)N(C)[C@H](C(=O)N3CCOCC3)CC(=O)N(C)[C@@H](Cc3ccc(C)cc3)C(=O)N[C@@H]([C@@H](C)CC)C(=O)N(C)CC(=O)N(C)[C@H]3CCCCCN(C3=O)[C@@H](Cc3ccc(C(F)(F)F)cc3)C(=O)N(C)CC(=O)N[C@@H](CCc3cc(F)c(C(F)(F)F)c(F)c3)C(=O)N2C1 [PP0933] | B (a compound having 3 or more and less than 10 is denoted as B) | A (a compound having 10 or more and less than 20 is denoted as A) |  |  |  | 
37.5 | CCO[C@@H]1C[C@H]2C(=O)NC3(CCC3)C(=O)N(C)[C@@H](C3CCCC3)C(=O)N(C)[C@H](C(=O)N3CCOCC3)CC(=O)N(C)[C@@H](COC)C(=O)N[C@@H]([C@@H](C)CC)C(=O)N(C)CC(=O)N(C)[C@H]3CCCCCN(C3=O)[C@@H](Cc3ccc(C(F)(F)F)cc3)C(=O)N(C)CC(=O)N[C@@H](CCc3ccc(C(F)(F)F)c(F)c3)C(=O)N2C1 [PP0848] | B (a compound having 3 or more and less than 10 is denoted as B) | B (a compound having 3 or more and less than 10 is denoted as B) |  |  |  | 
15.1 | CCCO[C@@H]1C[C@H]2C(=O)NC3(CC(C)(C)C3)C(=O)N(C)[C@@H](C3CCCC3)C(=O)N(C)[C@H](C(=O)N(C)CC)CC(=O)N(C)[C@H]3CCCc4ccc(cc4)C[C@@H](C(=O)N(C)CC(=O)N[C@@H](CCc4ccc(C(F)(F)F)c(OC)c4)C(=O)N2C1)N1CC/C=C\C[C@@H](C1=O)N(C)C(=O)CN(C1CC1)C(=O)[C@H]([C@@H](C)CC)NC3=O [PP3088] | B (a compound having 3 or more and less than 10 is denoted as B) | B (a compound having 3 or more and less than 10 is denoted as B) |  |  |  | 
13.7 | CC[C@H](C)[C@@H]1NC(=O)[C@@H]2CCC/C=C/c3ccc(cc3)C[C@@H](C(=O)N(C)CC(=O)N[C@@H](CCc3ccc(Cl)c(Cl)c3)C(=O)N3C[C@H](OC(C)C)C[C@H]3C(=O)NC3(CC(C)(C)C3)C(=O)N(C)[C@@H](C3CCCC3)C(=O)N(C)[C@H](C(=O)N3CCCC3)CC(=O)N2C)N2CC/C=C\C[C@@H](C2=O)N(C)C(=O)CN(C)C1=O [PP2596] | A (a compound having 10 or more and less than 20 is denoted as A) | A (a compound having 10 or more and less than 20 is denoted as A) |  |  |  | 
7.9 | CCC[C@H]1C(=O)N[C@@H]([C@@H](C)CC)C(=O)N(C)CC(=O)N(C)[C@H]2C/C=C\CCN(C2=O)[C@@H](Cc2ccc(C(F)(F)F)cc2)C(=O)N(C)CC(=O)N[C@@H](CCc2ccc(C(F)(F)F)c(Cl)c2)C(=O)N2C[C@H](OCC)C[C@H]2C(=O)NC2(CC(C)(C)C2)C(=O)N(C)[C@@H]([C@@H](C)CC)C(=O)N(C)[C@H](C(=O)N(C)C)CC(=O)N1C [PP2973] | A (a compound having 10 or more and less than 20 is denoted as A) | A (a compound having 10 or more and less than 20 is denoted as A) |  |  |  | 
7.8 | C#CCN1CC(=O)N(C)[C@H]2C/C=C\CCN(C2=O)[C@@H](Cc2ccc(C(F)(F)F)cc2)C(=O)N(C)CC(=O)N[C@@H](CCc2ccc(C(F)(F)F)c(OC)c2)C(=O)N2C[C@H](OCC)C[C@H]2C(=O)NC2(CC(C)(C)C2)C(=O)N(C)[C@@H](C2CCCC2)C(=O)N(C)[C@H](C(=O)N(C)C)CC(=O)N(C)[C@@H](CCC)C(=O)N[C@@H]([C@@H](C)CC)C1=O [PP2107] |  |  | A (a compound having 10 or more and less than 20 is denoted as A) | A (a compound having 10 or more and less than 20 is denoted as A) |  | 
6.1 | C=CCN1CC(=O)N(C)[C@H]2C/C=C\CCN(C2=O)[C@@H](Cc2ccc(C(F)(F)F)cc2)C(=O)N(C)CC(=O)N[C@@H](CCc2ccc(C(F)(F)F)c(OC)c2)C(=O)N2C[C@H](OCC)C[C@H]2C(=O)NC2(CC(C)(C)C2)C(=O)N(C)[C@@H](C2CCCC2)C(=O)N(C)[C@H](C(=O)N(C)C)CC(=O)N(C)[C@@H](CCC)C(=O)N[C@@H]([C@@H](C)CC)C1=O [PP2106] |  |  | A (a compound having 10 or more and less than 20 is denoted as A) | A (a compound having 10 or more and less than 20 is denoted as A) |  | 
1.6 | CCC[C@H]1C(=O)N[C@@H]([C@@H](C)CC)C(=O)N(C2CC2)CC(=O)N(C)[C@H]2C/C=C\CCN(C2=O)[C@@H](Cc2ccc(C(F)(F)F)cc2)C(=O)N(C)CC(=O)N[C@@H](CCc2ccc(C(F)(F)F)c(OC)c2)C(=O)N2C[C@H](OCC)C[C@H]2C(=O)N(C)C2(CCC2)C(=O)N(C)[C@@H](C2CCCC2)C(=O)N(C)[C@H](C(=O)N(C)C)CC(=O)N1C [PP2316] |  |  | A (a compound having 10 or more and less than 20 is denoted as A) | A (a compound having 10 or more and less than 20 is denoted as A) |  | 
